In patent US9623062B2, “Anti-ageing activity of camphor in fibroblast cell line” (Jeju National University Industryacademic Cooperation …, priority 2014, dated 2017):

Assays:
fibroblasts = assay: ROS production by DCFH-DA flow cytometry in fibroblasts; assay type: cell-based, human; conditions: for increase of ROS production compared to non-treated cells: fibroblasts, 24 hours after treatment, FIG. 4A
Method: To analyze the reactive oxygen species (ROS), the cells were seeded in 60 mm culture dishes at a density of 2×10^4 cells/mL, and then treated with 10% chamomile hydrosol for 0, 6, 12, and 24 hours. The cells were stained with 2′-7′-dichlorodihydrofluorescein diacetate (DCFH-DA) for 15 minutes, collected in a 15 mL tube, and then washed with PBS. The cells were re-suspended in 500 μl of PBS, and measured for a level of ROS. For the cell cycle analysis, the treated cells were harvested and fixed overnight in 70% ethanol at 4° C. After 24 hours, the cells were rehydrated in 2 mM EDTA-BPS with RNase A (25 ng/ml), and stained with PI (40 μg/ml). All the analyses were performed using a FACS Caliber flow cytometer (BD Biosciences), and each sample were analyzed by counting 10,000 cells.

[1] = system: fibroblast cells (SA-β-gal); assay: Senescence-associated β-galactosidase activity in fibroblasts; assay type: cell-based, human
Method: Fibroblast cells were incubated in 6-well plate at a density of 1×10^4 cells/well. Then the culture supernatants were removed and the cells were treated 72 h with only camphor (260 μM) or H2O2 600 μM and 800 μM or co-treated camphor and H2O2 in fresh media; ethanol containing media and media only were used as negative controls. In some experiments, H2O2 was pretreated on fibroblast cells 72 h and replaced with or without camphor treatment (260 μM) 48 h. After treatment, cells were washed twice with PBS and fixed 10 minutes in 4% formaldehyde. Then, this was followed by washing 3 times with wash solution (100 mM Na2HPO4 set to pH 6 with 100 mM Citric Acid). Cells was incubated overnight at 37° C. in freshly made staining solution (5 mM K3Fe(CN)6, 5 mM K4Fe(CN)6, 2 mM MgCl2, 150 mM NaCl, 40 mM Na2HPO4, 1 mg/mL bromo-chloro-indolyl-galactopyranoside (X-Gal), set to pH 6 with 100 mM citric acid). Next day, cells was washed the staining solution with PBS and taken picture by microscope and β-galactosidase-positive cell number ratio was calculated.

[2] = system: PI3K/AKT and MAPK signaling cascades; assay: Western blot of PI3K/AKT/ERK/4E-BP1 phosphorylation in fibroblasts; assay type: cell-based, human
Method: (§1) After 0, 6, 12, 24 h treatment, cells were collected and lysed in lysis buffer (100 mM Tris-Hcl [pH 8], 250 mM NaCl, 0.5% Nonidet P-40, and 1× protease inhibitor cocktail) and sonicated few times then kept on ice for 30 min. The cell lysates were centrifuged at 13,000 rpm for 30 min at 4° C. The supernatant were collected and determined the concentration by BCA™ Protein assay (Pierce, Rockford, Ill.). For detecting MMP 1 and collagen I, and collagen III, we collected the media and centrifuging 400×g for 1 h at 4° C. by using Amicon Ultra 10K and determined the concentration by Bradford assay. Aliquots of the lysated were separated by 10-15% SDS-PAGE, and transferred to PVDF membranes using a glycine transfer buffer (192 mM glycine, 25 mM Tris-HCl [pH 8.8], and 20% [v/v] methanol). After blocking with Skim milk 5% overnight at 4° C., the membrane were incubated with primary antibodies for 1 h RT or overnight at 4° C. and then for 1 h with secondary antibodies. Primary antibodies were diluted at ratio 1:1000 whereas the anti-β-actin primary and secondary antibodies (horseradish peroxidase-conjugated goat anti-mouse IgG) (Vector Laboratories, Burlingame, Calif.) were diluted at ratio 1:10,000. Protein bands were detected using the WEST-ZOL® plus Western Blot Detection System (iNtRON, Gyeonggi-do, Korea).

[3] = system: Primary dermal fibroblast cells; assay: MTT cell viability of fibroblasts; assay type: cell-based, human
Method: Fresh human foreskin specimens were obtained from 8 donors aged from 6 to 12 years, who received a routine circumcision procedure of Jeju National University Hospital, Korea. After being digested with 0.1% […] (Worthington Biochemical Corporation, Lakewood, N.J.) at 4° C. overnight, the epidermal layers were removed, and the remaining dermal parts were further digested with 0.1% collagenase I (Worthington) at 37° C. for another 4 h. The digested cells were then passed through a […] cell strainer (BD Biosciences, Mississauga, ON, Canada), centrifuged, and resuspended in high-glucose DMEM (Gibco, Invitrogen, Carlsbad, Calif.), supplemented with 10% FBS (Gibco, Invitrogen, Carlsbad, Calif.), 100 U/ml penicillin, and 100 μg/ml streptomycin (all from PAA Laboratories, Linz, Austria). Cells were seeded on tissue culture plates at 1×10^3 cells/cm2, and maintained at 37° C. with 5% CO2. After 24 h, the plates were washed with PBS to remove residual non-adherent cells. The resulting adherent cells were grown to confluence within 7 days. Primary dermal fibroblast (2×10^4 cells/ml) cells were plated in 96-well plates in 200 μl of medium containing 10% FBS. After 24 h, the cells were treated with different concentrations of chamomile hydrosol or camphor. […] Cell viability was determined from the absorbance at 570 nm, measured using a Sunrise microplate reader (Tecan, Salzburg, Austria). […]

[4] = system: collagen types I, III and IV and collagenase MMP1; assay: Western blot of collagen types and MMP1; assay type: cell-based, human; conditions: camphor treatment
Method: as §1

Fibroblast cells = assay: Total collagen assay (Sircol); assay type: cell-based, human; conditions: cells treated with camphor vs non-treated control, FIG. 5C
Method: Total collagen was quantified in culture media using the Sircol Soluble Collagen Assay kit (Biocolor, Newtownabbey, Northern Ireland) by quantitative dye-binding method, according to the manufacturer's instruction. Fibroblast cells were seeded in 6-well culture plates at density 2×10^5 cells/well with 2 ml/well media with or without camphor (260 μM) and incubated for different time points (6 h, 12 h, 24 h). After treatment, 200 μl sample medium of each group was transferred to a 1.5 ml centrifuge tube and 1 ml Sircol dye reagent was added into each tube. The mixed contents were incubated at room temperature for 30 min. Then the tubes were centrifuged at 10000 g for 10 minutes. The supernatants were drained off and discarded. The remaining pellets were mixed with 1 ml Alkali reagent and gently mixed until the pellets dissolved completely. The solutions were transferred to a 96-well plate and read absorbance at 540 nm. A standard curve was made simultaneously by standard collagen stock solution (0.5 mg/m1).

[5] = target: T1, porcine pancreatic elastase (PPE (Type IV)) (Sus scrofa, UniProt P00772); assay: Elastase assay; assay type: biochemical; conditions: camphor 0-3200 μM, n-Suc-(Ala)3-nitroanilide substrate, FIG. 5B
T1 construct: purchased Sigma
T1 sequence (P00772 27-266): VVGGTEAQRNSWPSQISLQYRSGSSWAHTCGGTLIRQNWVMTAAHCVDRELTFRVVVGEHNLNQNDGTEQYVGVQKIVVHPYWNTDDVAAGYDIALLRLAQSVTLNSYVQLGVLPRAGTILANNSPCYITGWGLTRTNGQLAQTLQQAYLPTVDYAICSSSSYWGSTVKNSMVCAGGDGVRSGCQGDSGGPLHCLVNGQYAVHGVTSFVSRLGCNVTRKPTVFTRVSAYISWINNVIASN
Method: The inhibition of different concentrations of camphor on porcine pancreatic elastase (PPE (Type IV), Sigma) activity was examined using n-Suc-(Ala)3-nitroanilide as the substrate, and the release of nitroaniline was measured at 410 nm. The reaction was carried out in a 200 mM Tris-HCl buffer (pH 8.0) containing 0.8 mM N-Suc-(Ala)3-nitroanilide and 5 μg/mL elastase. Different concentrations of camphor (0-3200 μM) were added to the reaction mixture to reach a final volume of 320 μl, and elastase inhibition was assessed in 96 well-plate reader at 25° C. The reaction mixture was pre-incubated for 10 minutes before addition of the substrate. The change in absorbance was measured at 410 nm using a 96-well reader. The percentage of elastase activities was calculated by the following equation: Enzyme activity (%)=100−[(B−A)/A]×100]
wherein A represents an absorbance at 410 nm without camphor, and B represents an absorbance at 410 nm with camphor.

OO [H2O2, reference compound]
increase of ROS production compared to non-treated cells (fibroblasts): 53% | SA-β-gal-positive cells ([1]; H2O2 alone vs control, FIG. 5A): dramatically induced SA-β-gal-positive cells

CC(=O)N[C@@H](CS)C(=O)O [NAC, N-acetyl-L-cysteine, reference compound]
phosphorylation of PI3K, AKT, 4EBP1, and ERK increased by camphor, after NAC pre-treatment ([2]; NAC pre-treatment plus camphor, FIG. 4D): reduced the phosphorylation | camphor-induced ROS production after NAC pre-treatment (fibroblasts; fibroblasts pre-treated with NAC, then camphor 24 hours, FIG. 4B): decreased the induced ROS production | cell viabilities enhanced by camphor when ROS scavenged by NAC ([3]; NAC pre-treatment, then camphor, FIG. 4C): decreased

CC1(C)C2CC[C@@]1(C)C(=O)C2 [camphor, (1R)-1,7,7-Trimethylbicyclo[2.2.1]heptan-2-one]
phosphorylated forms of 4E-BP1 ([2]; fibroblasts treated with camphor, FIG. 3B): observed | phosphorylation of PI3K, AKT, and ERK ([2]; fibroblasts treated with camphor, time-dependent, FIG. 3B): increased the phosphorylation | increase of ROS production compared to non-treated cells (fibroblasts): approximately 13% | reversal of cellular senescence ([1]; cells pre-treated with H2O2 at 800 μM, then camphor): did not significantly reverse the cellular senescence | SA-β-gal-positive cells ([1]; co-treatment of camphor with 600 and 800 μM H2O2, 72 h): reduced the SA-β-gal-positive cells | number of senescent cells ([1]; pre-treated with 600 μM H2O2 for 3 days, then camphor for 2 days): significantly decreased | expression of MMP1 [4]: no change | volume of collagen types III and IV ([4]; FIG. 5D): increased | fibroblast viability ([3]; camphor from 32.25 μM to 260 μM, FIG. 3A): increased the fibroblast viability | total volume of collagen (Fibroblast cells): increased | elastase activity inhibition [5]: inhibited the elastase activity in a concentration-dependent manner
